In the CheMixHub viscosity set:

Assay: xn = mol fraction of the nth substance listed

NC=O + CCCO
Settings	viscosity [mPa·s]
293.15 K, 101 kPa, x1 = 0.0557	2.16
293.15 K, 101 kPa, x1 = 0.1172	2.201
293.15 K, 101 kPa, x1 = 0.1854	2.285
293.15 K, 101 kPa, x1 = 0.2615	2.419
298.15 K, 100 kPa, x1 = 0.0744	1.97
298.15 K, 100 kPa, x1 = 0.116	1.98
298.15 K, 100 kPa, x1 = 0.1885	2.07
298.15 K, 100 kPa, x1 = 0.294	2.27
298.15 K, 100 kPa, x1 = 0.3225	2.33
298.15 K, 100 kPa, x1 = 0.331	2.4
298.15 K, 100 kPa, x1 = 0.4121	2.54
298.15 K, 100 kPa, x1 = 0.4562	2.61
298.15 K, 100 kPa, x1 = 0.4974	2.73
298.15 K, 100 kPa, x1 = 0.5225	2.76
298.15 K, 100 kPa, x1 = 0.6129	2.96
298.15 K, 100 kPa, x1 = 0.6877	3.09
298.15 K, 100 kPa, x1 = 0.7379	3.17
298.15 K, 100 kPa, x1 = 0.8232	3.28
298.15 K, 100 kPa, x1 = 0.8536	3.31
298.15 K, 100 kPa, x1 = 0.9169	3.36
298.15 K, 100 kPa, x1 = 0.9506	3.34
298.15 K, 101 kPa, x1 = 0.0557	1.938
298.15 K, 101 kPa, x1 = 0.1172	1.976
298.15 K, 101 kPa, x1 = 0.1854	2.052
298.15 K, 101 kPa, x1 = 0.2615	2.181
303.15 K, 101 kPa, x1 = 0.0557	1.742
303.15 K, 101 kPa, x1 = 0.1172	1.775
303.15 K, 101 kPa, x1 = 0.1854	1.846
303.15 K, 101 kPa, x1 = 0.2615	1.962
303.15 K, 101 kPa, x2 = 0.0999	2.877
303.15 K, 101 kPa, x2 = 0.2004	2.813
303.15 K, 101 kPa, x2 = 0.3002	2.706
303.15 K, 101 kPa, x2 = 0.4	2.554
303.15 K, 101 kPa, x2 = 0.5	2.378
303.15 K, 101 kPa, x2 = 0.6	2.191
303.15 K, 101 kPa, x2 = 0.6998	2.022
303.15 K, 101 kPa, x2 = 0.8	1.87
303.15 K, 101 kPa, x2 = 0.9001	1.756
303.15 K, 101.3 kPa, x1 = 0.0961	1.6
303.15 K, 101.3 kPa, x1 = 0.1755	1.7
303.15 K, 101.3 kPa, x1 = 0.2494	1.8
303.15 K, 101.3 kPa, x1 = 0.3192	1.9
303.15 K, 101.3 kPa, x1 = 0.3902	2
303.15 K, 101.3 kPa, x1 = 0.4629	2.1
303.15 K, 101.3 kPa, x1 = 0.5342	2.2
303.15 K, 101.3 kPa, x1 = 0.614	2.4
303.15 K, 101.3 kPa, x1 = 0.6891	2.6
303.15 K, 101.3 kPa, x1 = 0.7654	2.7
303.15 K, 101.3 kPa, x1 = 0.8114	2.7
303.15 K, 101.3 kPa, x1 = 0.921	2.8
308.15 K, 101 kPa, x1 = 0.0557	1.584
308.15 K, 101 kPa, x1 = 0.1172	1.618
308.15 K, 101 kPa, x1 = 0.1854	1.678
308.15 K, 101 kPa, x1 = 0.2615	1.798
308.15 K, 101 kPa, x2 = 0.0999	2.554
308.15 K, 101 kPa, x2 = 0.2004	2.492
308.15 K, 101 kPa, x2 = 0.3002	2.393
308.15 K, 101 kPa, x2 = 0.4	2.261
308.15 K, 101 kPa, x2 = 0.5	2.11
308.15 K, 101 kPa, x2 = 0.6	1.949
308.15 K, 101 kPa, x2 = 0.6998	1.802
308.15 K, 101 kPa, x2 = 0.8	1.669
308.15 K, 101 kPa, x2 = 0.9001	1.569
308.15 K, 101.3 kPa, x1 = 0.0961	1.4
308.15 K, 101.3 kPa, x1 = 0.1755	1.5
308.15 K, 101.3 kPa, x1 = 0.2494	1.5
308.15 K, 101.3 kPa, x1 = 0.3192	1.6
308.15 K, 101.3 kPa, x1 = 0.3902	1.7
308.15 K, 101.3 kPa, x1 = 0.4629	1.8
308.15 K, 101.3 kPa, x1 = 0.5342	1.9
308.15 K, 101.3 kPa, x1 = 0.614	2.1
308.15 K, 101.3 kPa, x1 = 0.6891	2.2
308.15 K, 101.3 kPa, x1 = 0.7654	2.3
308.15 K, 101.3 kPa, x1 = 0.8114	2.4
308.15 K, 101.3 kPa, x1 = 0.921	2.5
313.15 K, 101 kPa, x1 = 0.0557	1.349
313.15 K, 101 kPa, x1 = 0.1172	1.388
313.15 K, 101 kPa, x1 = 0.1854	1.457
313.15 K, 101 kPa, x1 = 0.2615	1.595
313.15 K, 101 kPa, x2 = 0.0999	2.285
313.15 K, 101 kPa, x2 = 0.2004	2.223
313.15 K, 101 kPa, x2 = 0.3002	2.133
313.15 K, 101 kPa, x2 = 0.4	2.015
313.15 K, 101 kPa, x2 = 0.5	1.881
313.15 K, 101 kPa, x2 = 0.6	1.74
313.15 K, 101 kPa, x2 = 0.6998	1.61
313.15 K, 101 kPa, x2 = 0.8	1.494
313.15 K, 101 kPa, x2 = 0.9001	1.407
313.15 K, 101.3 kPa, x1 = 0.0961	1.3
313.15 K, 101.3 kPa, x1 = 0.1755	1.3
313.15 K, 101.3 kPa, x1 = 0.2494	1.4
313.15 K, 101.3 kPa, x1 = 0.3192	1.5
313.15 K, 101.3 kPa, x1 = 0.3902	1.6
313.15 K, 101.3 kPa, x1 = 0.4629	1.7
313.15 K, 101.3 kPa, x1 = 0.5342	1.7
313.15 K, 101.3 kPa, x1 = 0.614	1.9
313.15 K, 101.3 kPa, x1 = 0.6891	2
313.15 K, 101.3 kPa, x1 = 0.7654	2.1
313.15 K, 101.3 kPa, x1 = 0.8114	2.1
313.15 K, 101.3 kPa, x1 = 0.921	2.2
318.15 K, 101 kPa, x1 = 0.0557	1.219
318.15 K, 101 kPa, x1 = 0.1172	1.263
318.15 K, 101 kPa, x1 = 0.1854	1.333
318.15 K, 101 kPa, x2 = 0.0999	2.056
318.15 K, 101 kPa, x2 = 0.2004	1.995
318.15 K, 101 kPa, x2 = 0.3002	1.912
318.15 K, 101 kPa, x2 = 0.4	1.804
318.15 K, 101 kPa, x2 = 0.5	1.685
318.15 K, 101 kPa, x2 = 0.6	1.561
318.15 K, 101 kPa, x2 = 0.6998	1.447
318.15 K, 101 kPa, x2 = 0.8	1.344
318.15 K, 101 kPa, x2 = 0.9001	1.266
318.15 K, 101.3 kPa, x1 = 0.0961	1.1
318.15 K, 101.3 kPa, x1 = 0.1755	1.1
318.15 K, 101.3 kPa, x1 = 0.2494	1.2
318.15 K, 101.3 kPa, x1 = 0.3192	1.3
318.15 K, 101.3 kPa, x1 = 0.3902	1.4
318.15 K, 101.3 kPa, x1 = 0.4629	1.5
318.15 K, 101.3 kPa, x1 = 0.5342	1.5
318.15 K, 101.3 kPa, x1 = 0.614	1.6
318.15 K, 101.3 kPa, x1 = 0.6891	1.7
318.15 K, 101.3 kPa, x1 = 0.7654	1.8
318.15 K, 101.3 kPa, x1 = 0.8114	1.9
318.15 K, 101.3 kPa, x1 = 0.921	1.9
323.15 K, 101 kPa, x2 = 0.0999	1.86
323.15 K, 101 kPa, x2 = 0.2004	1.801
323.15 K, 101 kPa, x2 = 0.3002	1.722
323.15 K, 101 kPa, x2 = 0.4	1.624
323.15 K, 101 kPa, x2 = 0.5	1.517
323.15 K, 101 kPa, x2 = 0.6	1.405
323.15 K, 101 kPa, x2 = 0.6998	1.304
323.15 K, 101 kPa, x2 = 0.8	1.212
323.15 K, 101 kPa, x2 = 0.9001	1.141
323.15 K, 101.3 kPa, x1 = 0.0961	0.92
323.15 K, 101.3 kPa, x1 = 0.1755	0.95
323.15 K, 101.3 kPa, x1 = 0.2494	1
323.15 K, 101.3 kPa, x1 = 0.3192	1.05
323.15 K, 101.3 kPa, x1 = 0.3902	1.1
323.15 K, 101.3 kPa, x1 = 0.4629	1.2
323.15 K, 101.3 kPa, x1 = 0.5342	1.3
323.15 K, 101.3 kPa, x1 = 0.614	1.3
323.15 K, 101.3 kPa, x1 = 0.6891	1.4
323.15 K, 101.3 kPa, x1 = 0.7654	1.5
323.15 K, 101.3 kPa, x1 = 0.8114	1.5
323.15 K, 101.3 kPa, x1 = 0.921	1.6
